This is an account of results in patent publication US11713297B2, “Crystalline form of N-butyldeoxygalactonojirimycin” (IDORSIA PHARMACEUTICALS LTD, priority 2017, dated 2023).

Molecules are shown by their SMILES.

For data set [1], the system named is plasma levels of metabolic substrates. In words: Phase Ib study in patients suffering from Fabry disease. It is filed as in vivo. The note with it: on top of enzyme replacement therapy.
The nature of data set [2]: Gravimetric vapour sorption (GVS) analysis, hygroscopicity. It is filed as physicochemical. As to conditions: crystalline form 1; 25° C.; mass change between 40% and 80% RH in first adsorption scan; European Pharmacopeia 8.0 classification. Here is the method:
Gravimetric Vapour Sorption (GVS) Analysis
Measurements were performed on a multi sample instrument SPS-100n (Projekt Messtechnik, Ulm, Germany) operated in stepping mode at 25° C. The sample was allowed to equilibrate at 40% RH before starting a pre-defined humidity program (40-0-95-0-95-40% RH, steps of 5% ΔRH and with a maximal equilibration time of 24 hours per step were applied. About 20 to 30 mg of each sample was used. The hygroscopic classification is done according to the European Pharmacopeia 8.0, e.g., slightly hygroscopic: increase in mass is less than 2% and equal to or greater than 0.2% mass/mass; hygroscopic: increase in mass is less than 15% and equal to or greater than 2% mass/mass. The mass change between 40% relative humidity and 80% relative humidity in the first adsorption scan is considered.

Data set [3] in a line: Thermogravimetric analysis (TGA). It is filed as physicochemical. The note with it: crystalline form 1; in the range 31.5 to 140° C. On the procedure: Thermogravimetric Analysis (TGA)
TGA data were collected on a Mettler Toledo STARe System (TGA851e module and STAR software version 9.20) equipped with a 34-position auto-sampler. Typically, about 5 mg of a sample, in an automatically pierced aluminium pan, was heated at 10° C. min^−1, unless stated otherwise, from 30° C. to 250° C. A nitrogen purge at 10 ml min^−1 was maintained over the sample.

The nature of data set [4]: Particle size distribution (PSD) by laser diffraction, wet dispersion. As to conditions: crystalline form 1; average of at least five crystallization batches, each measured in triplicate. It is filed as physicochemical. From the text: Particle size distributions are defined herein as D10, D50 and D90. D10, D50 and D90 represent the particle diameter corresponding to the respective percentage in volume (i.e. 10%, 50%, 90%) of a given sample which is below the indicated diameter. For example, a D50 from about 70 μm to about 150 μm means that 50% of the volume of a given sample has a diameter which is equal or below a diameter that is in the range between about 70 μm and about 150 μm. Particle size distributions may be determined using standard procedures such as laser diffraction.
Particle Size Distribution (PSD)
PSD measurements were performed by laser-diffraction using a wet dispersion method. Data were collected on a Mastersizer 2000 (Malvern) equipped with a dispersion unit Hydro 2000S in the size range from 0.020 μm to 2000.000 μm. Typically, about 100 mg sample in about 20 ml Tegiloxan 3 (silicon oil, CAS Nr. 9016-00-6) is dispersed in an ultrasonic bad for about 30 s and subsequently added to a prefilled with Tegiloxan 3 dispersion unit until obscuration of about 10% to about 30% is achieved. After a circulation time of 5 min, a sample measurement is performed. Reported particle size values (D10, D50 and D90) represent an average value of 3 measurements.
Particle size measurements of COMPOUND in crystalline form 1 as obtained in Examples 1, 2 and Reference Example 3 are performed using the method described herein. Each data point in Table 3 represents an average value obtained from at least five separate crystallization batches, each measured in triplicate.

As to `CCCCN1C[C@H](O)[C@@H](O)[C@@H](O)[C@H]1CO` [COMPOUND, (2R,3S,4R,5S)-1-butyl-2-(hydroxymethyl)piperidine-3,4,5-triol], the “plasma levels of metabolic substrates thought to be related to the development of the disease” value in data set [1] was “marked decrease”. For the same compound, the Hygroscopicity entry in data set [2] was “Not hygroscopic”. Besides, in data set [3], the TGA mass loss entry is “Mass loss of <0.1% in the range”.
In data set [4], `CCCCN1C[C@H](O)[C@@H](O)[C@@H](O)[C@H]1CO` [Example 2, (2R,3S,4R,5S)-1-butyl-2-(hydroxymethyl)piperidine-3,4,5-triol] registered a D10 of 7 μm, a D50 of 57 μm and a D90 of 138 μm.
For `CCCCN1C[C@H](O)[C@@H](O)[C@@H](O)[C@H]1CO` [Reference Example 3, (2R,3S,4R,5S)-1-butyl-2-(hydroxymethyl)piperidine-3,4,5-triol], in that order: 7 μm, 22 μm and 42 μm.
